pIC50: −log10 of the molar value. Structures can show the parent of a compound that is named as a salt.
Tests used:
[1] = system: in-plasma uric acid value; assay: In vivo test: in-plasma uric acid value-inhibition after single oral administration to mouse; settings: ICR mouse, blood one hour after administration; for In Vivo (%) TMX-67 (0.3 mg/kg): activity value relative to TMX-67 (0.3 mg/kg), single oral 0.3 mg/kg; for In Vivo (%) allopurinol (3 mg/kg): activity value relative to allopurinol (3 mg/kg), single oral 3 mg/kg
Method: The xanthine oxidase inhibiting action was. further confirmed in vivo tests by measuring the uric acid concentration in a plasma obtained from mouse into which the compound of the invention had been orally administered. See Example 51, Tables 11 and 12.
Pharmacological Experiment 2 (In Vivo Test)
The test compound suspended in 1% methylcellulose solution in an amount of 0.3 mg/kg or 3 mg/kg was administered to unfasted ICR mouse (7 W) by forced single oral administration. The blood was collected from main artery from the mouse under etherization after one hour from the administration. The plasma was separated from the collected blood in the conventional manner. The plasma was then subjected to measurement of uric acid value by the enzyme method by means of an automatic analytical apparatus (7060E), to obtain an in-plasma uric acid value-inhibition ratio in the test sample-administered group as compared with a ratio.obtained in the normal group.
Based on the obtained in-plasma uric acid inhibition ratio, activity values (%) relative to activity values obtained in the simultaneously conducted tests using TMX-67 (0.3 mg/kg) or allopurinol (3 mg/kg).

[2] = target: T1, Cow milk Xanthine Oxidase (Bos taurus, UniProt P80457); assay: Xanthine oxidase inhibition, in vitro (oxidation of xanthine, absorbance at 290 nm); type: biochemical; settings: xanthine 250 μM, 50 mM phosphate buffer pH 7.5, 30° C., 10 minutes
T1 construct: Cow milk Xanthine Oxidase (Roche); purchased Roche; host or cells: cow milk (natural source)
Method: The xanthine oxidase inhibiting action (in vitro test) of the compound of the invention was confirmed by measuring inhibition of oxidation of xanthine by xanthine oxidase, as described in Example 50. As is clear from Tables 11 and 12, the compounds of the invention show excellent xanthine oxidase inhibiting action.
Pharmacological Experiment 1 (In Vitro Measuring Method)
1. Preparation of Test Sample
The test compound was dissolved in dimethylsulfoxide and diluted with 50 mM phosphate buffer (pH 7.5), to give a solution of a predetermined concentration.
125 μL of each of the solutions of the test compound having different concentrations was added to 1 mL of a solution of Xanthine (SIGMA, 250 μM) in the 50 mM phosphor buffer (pH 7.5). The mixture was then pre-incubated at 30° C. for 5 min. Subsequently, to the pre-incubated mixture was added 125 μL of Cow milk Xanthine Oxidase (Roche) diluted with the 50 mM phosphate buffer (pH 7.5) to 70 mU/mL, and the mixture was subjected to reaction at 30° C. for 10 minutes. Then, 1N hydrochloric acid, (200 μL) was added to the reaction mixture to terminate the reaction. Subsequently, absorbance at OD 290 nm was measured by means of a spectrophotometer (Shimadzu UV-160A)., to obtain a inhibition ratio. The measured inhibition ration was used to obtain […]
The inhibition ratio was calculated according to the following formula: Inhibition ratio (%)=[1−(B−C)/(A−C)]×100 • A: absorbance of control • B: absorbance measured on a sample containing test compound • C: absorbance of blank (Test Results)

T1 sequence (P80457 whole entry): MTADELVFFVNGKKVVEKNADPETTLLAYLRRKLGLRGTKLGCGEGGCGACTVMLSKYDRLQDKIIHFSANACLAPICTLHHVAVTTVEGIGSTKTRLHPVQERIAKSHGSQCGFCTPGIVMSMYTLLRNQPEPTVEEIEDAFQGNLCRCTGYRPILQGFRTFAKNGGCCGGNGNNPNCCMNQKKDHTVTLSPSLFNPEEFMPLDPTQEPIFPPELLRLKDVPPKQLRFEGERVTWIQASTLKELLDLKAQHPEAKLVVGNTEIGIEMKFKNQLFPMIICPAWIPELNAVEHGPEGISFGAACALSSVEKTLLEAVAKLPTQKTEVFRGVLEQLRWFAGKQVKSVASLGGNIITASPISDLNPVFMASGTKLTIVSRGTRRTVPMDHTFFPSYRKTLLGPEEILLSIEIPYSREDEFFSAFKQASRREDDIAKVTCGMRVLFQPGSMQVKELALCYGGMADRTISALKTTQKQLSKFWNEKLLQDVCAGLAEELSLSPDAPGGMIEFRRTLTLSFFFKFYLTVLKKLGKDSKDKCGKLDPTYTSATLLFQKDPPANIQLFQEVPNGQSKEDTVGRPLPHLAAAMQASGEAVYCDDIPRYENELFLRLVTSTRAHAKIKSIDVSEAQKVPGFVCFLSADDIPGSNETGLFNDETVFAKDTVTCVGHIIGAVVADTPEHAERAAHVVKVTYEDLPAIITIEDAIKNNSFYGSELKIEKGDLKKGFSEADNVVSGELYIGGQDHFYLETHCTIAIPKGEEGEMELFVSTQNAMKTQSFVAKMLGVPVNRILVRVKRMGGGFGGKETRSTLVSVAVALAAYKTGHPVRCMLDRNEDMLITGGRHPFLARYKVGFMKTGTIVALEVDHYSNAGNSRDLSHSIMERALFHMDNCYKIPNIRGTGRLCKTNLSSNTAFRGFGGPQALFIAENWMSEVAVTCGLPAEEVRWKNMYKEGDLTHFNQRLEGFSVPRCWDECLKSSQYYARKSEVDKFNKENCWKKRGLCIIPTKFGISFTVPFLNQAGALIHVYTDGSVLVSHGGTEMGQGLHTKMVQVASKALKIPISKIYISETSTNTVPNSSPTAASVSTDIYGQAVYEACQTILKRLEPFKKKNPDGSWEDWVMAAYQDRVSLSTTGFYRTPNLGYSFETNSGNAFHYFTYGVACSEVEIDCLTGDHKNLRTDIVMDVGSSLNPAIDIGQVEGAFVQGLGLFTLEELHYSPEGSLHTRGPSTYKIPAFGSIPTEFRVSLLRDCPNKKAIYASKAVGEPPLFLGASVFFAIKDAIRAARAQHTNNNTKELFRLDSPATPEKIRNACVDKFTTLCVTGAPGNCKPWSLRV

| Compound | In Vivo (%) TMX-67 (0.3 mg/kg) [1] | pIC50 [2] | also measured |
| --- | --- | --- | --- |
| O=[N+]([O-])c1cc(-c2nc3c(O)ncnc3s2)ccc1Oc1cccnc1.[K] [Example 33, 4-Hydroxy-2-[3-nitro-4-(3-pyridyloxy)-phenyl]thiazolo[5,4-d)pyrimidine potassium salt] | 48% |  |  |
| O=[N+]([O-])c1cc(-c2nc3c(O)ncnc3s2)ccc1Oc1cccc(F)c1 [Example 20, 2-[4-(3-Fluorophenoxy)-3-nitrophenyl]-4-hydroxythiazolo[5,4-d]pyrimidine] |  | 7.99 | melting point: 279 to 281 °C (dec.) |
| COc1ncnc2sc(-c3ccc(Oc4ccc(F)cc4)c(C#N)c3)nc12 [Example 40, 2-[3-Cyano-4-(4-fluorophenoxy)phenyl]-4-methoxythiazolo[5,4-d]pyrimidine] | 30% |  | In Vivo (%) allopurinol (3 mg/kg) [1]: 107% |
| O=[N+]([O-])c1cc(-c2nc3c([O-])ncnc3s2)ccc1Oc1ccccc1.[K+] [Example 8, 2-(3-Nitro-4-phenoxyphenyl)-4-hydroxythia-zolo[5,4-d]pyrimidine potassium salt] | 125% |  |  |
| O=[N+]([O-])c1cc(-c2nc3c(O)ncnc3s2)ccc1Sc1ccc(Cl)cc1 [Example 3, 2-[4-(4-Chlorophenylthio)-3-nitrophenyl]-4-hydroxythiazolo[5,4-d]pyrimidine potassium salt] |  | 7.72 |  |
| O=[N+]([O-])c1cc(-c2nc3c(O)ncnc3s2)ccc1Sc1ccccc1 [Example 4, 4-Hydroxy-2-(3-nitro-4-phenylthiophenyl)thiazolo[5,4-d]pyrimidine] |  | 7.73 |  |
| O=[N+]([O-])c1cc(-c2nc3c(O)ncnc3s2)ccc1Oc1ccccc1Cl [Example 18, 2-[4-(2-Chlorophenoxy)-3-nitrophenyl]-4-hydroxythiazolo[5,4-d]pyrimidine] |  | 8.10 | melting point: 283 to 288 °C (dec.) |
| O=[N+]([O-])c1cc(-c2nc3c([O-])ncnc3s2)ccc1Oc1ccc(F)cc1.[K+] [Example 13, 2-[4-(4-Fluorophenoxy)-3-nitrophenyl]-4-hydroxythiazolo[5,4-d]pyrimidine potassium salt] | 141% |  |  |
| O=[N+]([O-])c1cc(-c2nc3c(O)ncnc3s2)ccc1Sc1ccc(Cl)cc1 [Example 2, 2-[4-(4-Chlorophenylthio)-3-nitrophenyl]-4-hydroxythiazolo[5,4-d]pyrimidine] |  | 7.86 |  |
| O=[N+]([O-])c1cc(-c2nc3c(O)ncnc3s2)ccc1Oc1ccccc1F [Example 21, 2-[4-(2-Fluorophenoxy)-3-nitrophenyl]-4-hydroxythiazolo[5,4-d]pyrimidine] |  | 8.27 |  |
| COC(=O)c1ccc(Oc2ccc(-c3nc4c(O)ncnc4s3)cc2[N+](=O)[O-])cc1 [Example 25, 4-Hydroxy-2-[4-(4-methoxycarbonylphenoxy)-3-nitrophenyl]thiazolo[5,4-d]pyrimidine] |  | 7.73 |  |
| 2-[4-(4-Chlorophenoxy)-3-cyanophenyl]-4-hydroxythiazolo[5,4-d]pyrimidine potassium salt [Example 24] | 28% | 7.73 |  |
| O=[N+]([O-])c1cc(-c2nc3c(O)ncnc3s2)ccc1Oc1cccnc1 [Example 32, 4-Hydroxy-2-[3-nitro-4-(3-pyridyloxy)-phenyl]thiazolo[5,4-d]pyrimidine] |  | 8.04 | melting point: 276 to 280 °C (dec.) |
| O=[N+]([O-])c1cc(-c2nc3c(O)ncnc3s2)ccc1Oc1ccc(-c2ccccc2)cc1 [Example 31, 4-Hydroxy-2-[3-nitro-4-(4-phenylphenoxy)-phenyl]thiazolo[5,4-d]pyrimidine] |  | 7.43 |  |
| O=[N+]([O-])c1cc(-c2nc3c(O)ncnc3s2)ccc1Oc1cccc(Cl)c1 [Example 17, 2-[4-(3-Chlorophenoxy)-3-nitrophenyl]-4-hydroxythiazolo[5,4-d]pyrimidine] |  | 7.77 |  |
| O=[N+]([O-])c1cc(-c2nc3c(O)ncnc3o2)ccc1Oc1ccc(F)cc1 [Example 39, 2-[4-(4-Fluorophenoxy)-3-nitrophenyl]-4-hydroxyoxazolo[5,4-d]pyrimidine potassium salt] |  | 7.87 |  |
| N#Cc1cc(-c2nc3c([O-])ncnc3s2)ccc1Sc1ccc(F)cc1.[K+] [Example 43, 2-[3-Cyano-4-(4-fluorophenylthio)phenyl]-4-hydroxythiazolo[5,4-d]pyrimidine potassium salt] | 185% |  |  |

| Compound | In Vivo (%) TMX-67 (0.3 mg/kg) [1] | pIC50 [2] | also measured |
| --- | --- | --- | --- |
| N#Cc1cc(-c2nc3c([O-])ncnc3s2)ccc1Oc1ccccc1.[K+] [Example 49, 2-(3-Cyano-4-phenoxyphenyl)-4-hydroxy-thiazolo[5,4-d]pyrimidine potassium salt] | 140% | 7.97 |  |
| N#Cc1cc(-c2nc3c(O)ncnc3s2)ccc1Oc1ccc(Cl)cc1 [Example 23, 2-[4-(4-Chlorophenoxy)-3-cyanophenyl]-4-hydroxythiazolo[5,4-d]pyrimidine] |  | 7.57 |  |
| O=[N+]([O-])c1cc(-c2nc3c(O)ncnc3s2)ccc1Oc1ccc(C(F)(F)F)cc1 [Example 16, 4-Hydroxy-2-[3-nitro-4-[4-(trifluoromethyl)-phenoxy]phenyl]thiazolo[5,4-d]pyrimidine] |  | 7.28 |  |
| O=[N+]([O-])c1cc(-c2nc3c(O)ncnc3s2)ccc1Oc1ccc(O)cc1 [Example 35, 4-Hydroxy-2-[4-(4-hydroxyphenoxy)-3-nitro-phenyl]thiazolo[5,4-d]pyrimidine] | 61% |  |  |
| O=[N+]([O-])c1cc(-c2nc3c(O)ncnc3s2)ccc1Nc1ccccc1 [Example 29, 2-(3-Nitro-4-phenylaminophenyl)-4-hydroxy-thiazolo[5,4-d]pyrimidine] |  | 7.61 |  |
| O=[N+]([O-])c1cc(-c2nc3c(O)ncnc3s2)ccc1Oc1ccc(Oc2ccccc2)cc1 [Example 28, 2-[3-Nitro-4-(4-phenoxyphenoxy)phenyl]-4-hydroxythiazolo[5,4-d]pyrimidine] |  | 7.17 |  |
| COc1ccc(Oc2ccc(-c3nc4c(O)ncnc4s3)cc2[N+](=O)[O-])cc1 [Example 14, 2-[4-(4-Methoxyphenoxy)-3-nitrophenyl]-4-hydroxythiazolo[5,4-d]pyrimidine] |  | 8.07 |  |
| O=C(O)c1ccc(Oc2ccc(-c3nc4c(O)ncnc4s3)cc2[N+](=O)[O-])cc1 [Example 26, 2-[4-(4-Carboxyphenoxy)-3-nitrophenyl]-4-hydroxythiazolo[5,4-d]pyrimidine] |  | 8.01 |  |
| O=[N+]([O-])c1cc(-c2nc3c(O)ncnc3s2)ccc1Oc1ccc(Cl)cc1 [Example 5, 2-[4-(4-Chlorophenoxy)-3-nitrophenyl]-4-hydroxythiazolo[5,4-d]pyrimidine] |  | 7.69 | melting point: 304 to 306 °C (dec.) |
| O=C([O-])c1ccc(Oc2ccc(-c3nc4c([O-])ncnc4s3)cc2[N+](=O)[O-])cc1.[K+].[K+] [Example 27, 2-[4-(4-Carboxyphenoxy)-3-nitrophenyl]-4-hydroxythiazolo[5,4-d]pyrimidine dipotassium salt] |  |  | In Vivo (%) allopurinol (3 mg/kg) [1]: 36% |
| O=[N+]([O-])c1cc(-c2nc3c(O)ncnc3s2)ccc1Oc1ccc(Cl)c2ccccc12 [Example 11, 2-[4-(4-Chloro-1-naphthoxy)-3-nitrophenyl]-4-hydroxythiazolo[5,4-d]pyrimidine] |  | 7.28 |  |
| 2-[3-Cyano-4-(4-fluorophenoxy)phenyl]-4-hydroxythiazolo[5,4-d]pyrimidine potassium salt [Example 37] | 107% |  |  |
| CC(C)c1ccc(Oc2ccc(-c3nc4c(O)ncnc4s3)cc2[N+](=O)[O-])cc1 [Example 30, 4-Hydroxy-2-[4-(4-isopropylphenoxy)-3-nitro-phenyl]thiazolo[5,4-d]pyrimidine] |  | 6.92 |  |
| 2-[4-(4-Chlorophenylthio)-3-cyanophenyl]-4-hydroxythiazolo[5,4-d]pyrimidine potassium salt [Example 10] | 84% | 7.65 |  |
| N#Cc1cc(-c2nc3c(O)ncnc3s2)ccc1Sc1ccc(Cl)cc1 [Example 9, 2-[4-(4-Chlorophenylthio)-3-cyanophenyl]-4-hydroxythiazolo[5,4-d]pyrimidine] |  | 7.84 |  |
| 2-[3-Cyano-4-(2-fluorophenoxy)phenyl]-4-hydroxythiazolo[5,4-d]pyrimidine potassium salt [Example 46] | 223% | 7.75 |  |

Source: patent publication US20070293512A1, “Condensed Pyrimidine Deriviative and Xanthine Oxidase Inhibitor” (priority 2004, published 2007)
